2 molecules from patent publication US20110224221A1, “HEMATOPOIETIC PROTECTION AGAINST IONIZING RADIATION USING SELECTIVE CYCLIN-DEPENDENT KINASE 4/6 INHIBITORS” (priority 2008, published 2011) can be followed below.

Entries after “also recorded” stand apart in the source; their conditions may differ.

The subject of assay [1] is human melanoma cell line WM2664. In words: Cell cycle analysis (BrdU incorporation in vitro), WM2664. As to conditions: WM2664, 24 hours exposure. In kind it is cell-based. From the text:
FIG. 3A is a set of graphs showing the dose-response curves for cycle analysis in both cyclin-dependent kinase 4/6 (CKD4/6)-dependent cells (human telomerized human diploid fibroblasts (tHDFs, left-hand column of graphs) and a CDK4/6-dependent human melanoma cell line (WM2664, middle column of graphs)) and in CDK4/6-independent cells (a human retinoblastoma tumor suppressor protein (RB)-null melanoma cell line (A2058), right-hand column of graphs). […] The percentage of cells in the G1 phase is indicated by the data shown in the open triangles, while the percentage of cells in the S phase is shown by the data in the shaded circles and the percentage of cells in the G2/M phase is indicated by the data in the double “x”s.
FIG. 8 is a set of representative cell cycle dot-plots for cyclin-dependent kinase 4/6 (CDK4/6)-dependent (WM2664) human melanoma cells (top two rows) and CDK4/6-independent (A2058) human melanoma cells (bottom two rows) that had been treated with dimethyl sulfoxide (DMSO) as a control or with 300 nM, 1 μM, 3 μM, 10 μM or 30 μM of trans-4-[[6-ethylamino)-2-[[2-phenylmethyl)-1H-indol-5-yl]amino]-4-pyrimidinyl]amino]]-cyclohexanol (CINK4).
Cell Lines: KPTR1, KPTR4. and KPTR5 were derived from tumor-bearing TyrRAS+Ink4a/Arf−/− by standard procedures and cultured in RPMI+10% fetal bovine serum (FBS). Telomerized HDFs (tHDFs, also known as HS68) were cultured in DMEM+10% FBS with penicillin and streptomycin. The same conditions were used for A2058 and WM2664, human melanoma cell lines with known RB-pathway mutations: A2058 is RB-null, whereas WM2664 lacks p16^INK4a/Arf. See Shields, et al., Cancer Res., 67, 1502-1512 (2007). Cells were irradiated for indicated doses in a Rad Source Inc. (Alpharetta, Ga., United States of America) RS-2000 Biological Irradiator at 160 kV, 25.0 mA, at distance setting 1, with a dose rate of 103 rads/min.
BrdU Incorporation in vitro: Cells were plated and allowed to adhere overnight or at least 6 hours prior to adding CDK4/6 inhibitor at the indicated concentrations. Cells were grown for 24 hours in the presence of CDK4/6 inhibitor. 15 minutes prior to cell harvesting, 5-Bromo-2-deoxyuridine (BrdU) was added to the media at a final concentration of 10 μM. The cells were then washed, trypsinized, pelleted, fixed, permeabilized, stained, and measured on a flow cytometer as described in manufacturer directions for the BrdU Kit (BD Biosciences Pharmingen, San Diego, Calif., United States of America).
The proliferation of seven RB-deficient human small cell lung cancer lines was also resistant to the selective CDK4/6 inhibitors.
For orientation: Uptake of a labelled nucleoside into DNA is a usual measure of proliferation.

The test system of assay [2] is tHDF cells. In words: Western blot of DNA damage response marker phospho-P53 after IR. As to conditions: treatment prior to IR; PD0332991 100 nM for 24 hours, 6 Gy. The format is cell-based, human. On the procedure: FIG. 4A are images of Western blots of a DNA damage response marker (phospho-P53) in telomerized human diploid fibroblast (tHDF) cell lysates 3 hours after or 6 hours after a 6 gray (Gy) dose of ionizing radiation (IR) or following no IR, as indicated above the blot images. […] Actin western blot is shown as a loading control.
FIG. 4B is a bar graph showing the normalized phospho-P53 intensity in the telomerized human diploid fibroblast (tHDF) cells described in FIG. 4A.
Western Blots: Western blots were performed on cell lysates in NP-40 lysis buffer with protease inhibitors (Roche, Basel, Switzerland) and phosphatase inhibitors (Calbiochem, San Diego, Calif., United States of America) as previously described (see Ramsey et al., Cancer Res., 67, 4732-4741), using anti-p53-phospho-Ser15 (Cell Signaling Technology, Beverly, Mass., United States of America), Bax, p21, and actin-HRP (Santa Cruz Biotechnology, Inc., Santa Cruz, Calif., United States of America).

For assay [3], the system named is tHDF cells. In words: γH2AX after IR. The format is cell-based, human. As to conditions: 24 hours prior to IR; PD0332991 100 nM (6 Gy), 2BrIC 2 μM (0-8 Gy). The text has this: FIG. 5A is a set of grayscale 40× images of phospho-γH2AX foci (nuclear) and phalloidin staining (cytoplasmic) of telomerized human diploid fibroblasts (tHDF) with (bottom row) and without (top row) 6 Gy ionizing radiation (IR). […] Scale bar=50 μm.
N=139 or greater for each condition; box=middle 50%, whiskers=0-25% and 75-100%. Significance determined by Kruskal-Wallis with Dunn post-hoc test for pairwise comparisons (*** p<0.0001).
FIG. 5F is a set of representative phospho-γH2AX (x-axis) dot plots after 0, 2, 4, 6, or 8 gray (Gy) of ionizing radiation with (right-hand column) or without (left-hand column) treatment with the selective cyclin-dependent kinase 4/6 (CDK4/6) inhibitor 2-bromo-12,13-dihydro-5H-indolo[2,3-a]pyrrolo[3,4]carbazole-5,6-dione (2BrIC) at 2 μM for 24 hours prior to exposure to ionizing radiation (IR). Cells that were not treated with 2BrIC were instead treated with vehicle (dimethyl sulfoxide (DMSO)) only. An increased fraction of phospho-γH2AX (x-axis) expressing cells is noted with increased doses of IR in DMSO treated cells.
γH2AX after IR: For γH2AX images, tHDF received 6 Gy IR with or without 24 hours of prior exposure to a CDK inhibitor. […] Images were analyzed for mean nuclear intensities were computed in ImageJ software (developed by the National Institutes of Health, Bethesda, Md., United States of America). […]

Regarding `CC(=O)c1c(C)c2cnc(Nc3ccc(N4CCNCC4)cn3)nc2n(C2CCCC2)c1=O` [PD0332991, 6-acetyl-8-cyclopentyl-5-methyl-2-(5-piperazin-1-yl-pyridin-2-ylamino)-8H-pyrido-[2,3-d]-pyrimidin-7-one], in assay [1], the cell cycle effect result is reported as “strong, reversible G1-arrest”. For the same molecule, the “DNA damage response (phospho-P53) after IR” value in the assay on tHDF cells [2] is recorded as “attenuated”. Further, the “γH2AX formation after IR” value in the assay with tHDF cells [3] is “attenuated”.

Consider `O=C1NC(=O)c2c1c1c3ccccc3[nH]c1c1[nH]c3cc(Br)ccc3c21` [Compound 2BrIC, 2-bromo-12,13-dihydro-5H-indolo[2,3-a]pyrrolo[3,4]-carbazole-5,6-dione], for which the cell cycle effect entry in assay [1] is “strong, reversible G1-arrest”. Also, the “DNA damage response (phospho-P53) after IR” value in the assay with tHDF cells [2] was “attenuated”. The “γH2AX formation after IR” value with tHDF cells [3] is given as “attenuated; also recorded: potently decreases IR-induced DNA damage; also recorded: decreases the induction of phospho-γH2AX expression”.
